The numbers were not newly measured in patent publication US20020143065A1, “Developing a delivery system for multi-pharmaceutical active materials at various release rates” (priority 2000, published 2002), which cites them from elsewhere.

For data set [1] the following is noted: gynecological patients, intravenous patient-controlled analgesia.
The conditions of data set [2]: compared with tramadol racemate.

For the compound `COc1cccc(C2(O)CCCCC2CN(C)C)c1` (racemic) [racemate, tramadol], in data set [1], the analgesic efficacy entry was “more efficacy than (−) tramadol enantiomer”; the “side effects (nausea and vomiting)” value is “no more side effects than (+) tramadol enantiomer”.
Consider `COc1cccc([C@@]2(O)CCCC[C@@H]2CN(C)C)c1` (single isomer, unassigned) [(+) enantiomer, (+) tramadol], for which the opiate-like analgesic effect result in data set [2] is listed as “considerably enhanced compared with that of tramadol”. In data set [1], the analgesic efficacy result is given as “more potent in producing analgesia”; the “side effects (nausea and vomiting)” value is “produced more nausea and vomiting”.
